In US11414416B1, “Compounds and uses thereof” (Foghorn Therapeutics Inc., priority 2019, dated 2022):

Tests used:
BRD9 bromodomain = BRD9 bromodomain (Homo sapiens (Human), UniProt Q9H8M2); experiment: BRD9 bromodomain TR-FRET competition binding assay; settings: Table 4; competition with biotinylated ligand, 3 nM Flag-BRD9, 90 minutes
Description: Procedure: His-Flag-BRD9 (P133-K239; Swiss Prot Q9H8M2; SEQ ID NO:1 mgsshhhhhhenlyfq/gdykddddkgslevlfqg/[…] […]) was cloned, expressed, purified, and then treated with TEV protease. Cleaved His tag was removed by purification. The binding of a biotinylated small molecule ligand of BRD9 was assessed via the LANCE® TR-FRET platform (PerkinElmer), and the compounds were assayed for inhibitory activity against this interaction.
A mixture of biotinylated-ligand and SureLight™ Allophycocyanin-Streptavidin (APC-SA, PerkinElmer AD0201) in 50 mM HEPES (pH 7.4), 50 mM NaCl, 1 mM TCEP (pH 7), 0.01% (v/v) Tween-20, 0.01% (w/v) bovine serum albumin was added to a white 384-well PerkinElmer Proxiplate Plus plate. DMSO or 3-fold serially diluted compounds were then added to the Proxiplate followed by addition of Flag-BRD9. After a 10-minute incubation at room temperature, Eu-W1024 anti-FLAG (PerkinElmer, AD0273) was added. The final reaction mixture that contained 3.75 nM biotinylated ligand, 3 nM Flag-BRD9, 7.5 nM SureLight™ Allophycocyanin-Streptavidin, and 0.2 nM Eu-W1024 anti-FLAG was incubated at room temperature for 90 minutes.
Results: The plates were then read on a PerkinElmer Envision plate reader to determine the ratio of emission at 665 nm over 615 nm. […]

[1] = target: Nanoluciferase-BRD9 fusion protein (Homo sapiens (Human), UniProt Q9H8M2); experiment: SYO1 BRD9 NanoLuc degradation assay; assay type: cell-based; settings: Table 5A, SYO-1 cells expressing 3×FLAG-NLuc-BRD9, 6 hours; for DC50: read-out: SYO1 BRD9-NanoLuc degradation IC50
Sequence of Nanoluciferase-BRD9 fusion protein (Q9H8M2 whole entry, the tested form may be a part): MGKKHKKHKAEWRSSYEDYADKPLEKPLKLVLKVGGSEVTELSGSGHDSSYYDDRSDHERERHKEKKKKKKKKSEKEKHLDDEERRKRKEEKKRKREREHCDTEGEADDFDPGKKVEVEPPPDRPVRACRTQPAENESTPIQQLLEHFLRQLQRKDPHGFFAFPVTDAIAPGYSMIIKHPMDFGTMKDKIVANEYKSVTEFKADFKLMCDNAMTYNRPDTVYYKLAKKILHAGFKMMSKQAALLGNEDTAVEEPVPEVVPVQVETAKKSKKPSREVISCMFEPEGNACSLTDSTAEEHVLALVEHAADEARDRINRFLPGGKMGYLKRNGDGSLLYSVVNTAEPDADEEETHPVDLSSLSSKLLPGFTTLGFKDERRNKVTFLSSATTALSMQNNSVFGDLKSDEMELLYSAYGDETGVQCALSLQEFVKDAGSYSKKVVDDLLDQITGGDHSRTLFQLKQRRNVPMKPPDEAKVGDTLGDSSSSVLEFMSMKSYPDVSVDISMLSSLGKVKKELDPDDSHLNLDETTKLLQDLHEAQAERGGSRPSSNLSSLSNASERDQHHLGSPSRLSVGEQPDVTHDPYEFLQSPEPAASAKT
Procedure, shortened: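 Degradation was read as loss of nanoluciferase signal (Nano-Glo) after 6 h compound exposure in a stable SYO-1 line carrying 3×FLAG-NLuc-BRD9 (8000 cells/well). Normalised between DMSO (high) and a 1 μM known BRD9 degrader (low).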

Sequence of BRD9 bromodomain (Q9H8M2 133-239): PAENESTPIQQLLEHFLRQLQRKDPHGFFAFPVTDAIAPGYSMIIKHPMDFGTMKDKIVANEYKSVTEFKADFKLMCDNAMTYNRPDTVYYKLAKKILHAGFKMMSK

Row | IC50 (BRD9 bromodomain) | IC50 [1] | DC50 [1] | Compound
1 | < 10 nM | < 10 nM | – | COc1cc(-c2cn(C)c(=O)c3cnccc23)cc(OC)c1CN1CCC(COC2CCN(C(=O)CCOCCOc3ccc4c(c3)C(=O)N(C3CCC(=O)NC3=O)C4=O)C2)CC1 (stereo not drawn) [Compound D124]
2 | < 10 nM | – | 10 to 100 nM | COc1cc(-c2cn(C)c(=O)c3cnccc23)cc(OC)c1CN(C)CC1CC2CN(C(=O)CCOCCOc3cccc4c3C(=O)N(C3CCC(=O)NC3=O)C4=O)C[C@H]2C1 (stereo partly drawn) [Compound D177]
3 | 10 to 100 nM | 100 to 1000 nM | – | COc1cc(-c2cn(C)c(=O)c3cnccc23)cc(OC)c1CN1CC2(CCC2NC(=O)CCOCCOc2ccc3c(c2)C(=O)N(C2CCC(=O)NC2=O)C3=O)C1 (stereo not drawn) [Compound D115]
4 | < 10 nM | – | 10 to 100 nM | COc1cc(-c2cn(C)c(=O)c3cnccc23)cc(OC)c1CN1CCC2(CC1)CN(C(=O)CCOCCOc1ccc3c(c1)C(=O)N(C1CCC(=O)NC1=O)C3=O)C2 (stereo not drawn) [Compound D119]
5 | 10 to 100 nM | 100 to 1000 nM | – | COc1cc(-c2cn(C)c(=O)c3cnccc23)cc(OC)c1CN1CCC2(CC1)CN(C(=O)COc1ccc3c(c1)C(=O)N(C1CCC(=O)NC1=O)C3=O)CCO2 (stereo not drawn) [Compound D64, 5-[2-(9-[[2,6-dimethoxy-4-(2-methyl-1-oxo-2,7-naphthyridin-4-yl)phenyl]methyl]-1-oxa-4,9-diazaspiro[5.5]undecan-4-yl)-2-oxoethoxy]-2-(2,6-dioxopiperidin-3-yl)isoindole-1,3-dione formic acid]
6 | 10 to 100 nM | < 10 nM | – | COc1cc(-c2cn(C)c(=O)c3cnccc23)cc(OC)c1CN1CC2C1CCN2C(=O)CCOCCOc1ccc2c(c1)C(=O)N(C1CCC(=O)NC1=O)C2=O (stereo not drawn) [Compound D128]
7 | 10 to 100 nM | 10 to 100 nM | – | COc1cc(-c2cn(C)c(=O)c3cnccc23)cc(OC)c1CN(C)CCCOCCN1CCN(c2ccc3c(c2)C(=O)N(C2CCC(=O)NC2=O)C3=O)CC1 (stereo not drawn) [Compound D70, 5-(4-[2-[3-([[2,6-dimethoxy-4-(2-methyl-1-oxo-2,7-naphthyridin-4-yl)phenyl]methyl](methyl)amino)propoxy]ethyl]piperazin-1-yl)-2-(2,6-dioxopiperidin-3-yl)isoindole-1,3-dione formic acid]
8 | < 10 nM | – | 10 to 100 nM | COc1cc(-c2cn(C)c(=O)c3cnccc23)cc(OC)c1CN(C)C1CCC2CN(C(=O)CCOCCOc3cccc4c3C(=O)N(C3CCC(=O)NC3=O)C4=O)CC21 (stereo not drawn) [Compound D161]
9 | < 10 nM | – | 100 to 1000 nM | COc1cc(-c2cn(C)c(=O)c3cnccc23)cc(OC)c1CN1CCC12CCN(C(=O)CCOCCOc1ccc3c(c1)C(=O)N(C1CCC(=O)NC1=O)C3=O)C2 (stereo not drawn) [Compound D127]
10 | < 10 nM | – | 10 to 100 nM | COc1cc(-c2cn(C)c(=O)c3cnccc23)cc(OC)c1CN(C)CC1CC2(CCN(C(=O)CCOCCOc3cccc4c3C(=O)N(C3CCC(=O)NC3=O)C4=O)CC2)CO1 (stereo not drawn) [Compound D109]
11 | < 10 nM | – | 10 to 100 nM | COc1cc(-c2cn(C)c(=O)c3cnccc23)cc(OC)c1CN1CC(NC(=O)CCCCCOc2cccc3c2C(=O)N(C2CCC(=O)NC2=O)C3=O)C1 (stereo not drawn) [Compound D5, N-(1-[[2,6-dimethoxy-4-(2-methyl-1-oxo-1,2-dihydro-2,7-naphthyridin-4-yl)phenyl]methyl]azetidin-3-yl)-6-[[2-(2,6-dioxopiperidin-3-yl)-1,3-dioxo-2,3-dihydro-1H-isoindol-4-yl]oxy]hexanamide]
12 | < 10 nM | – | 10 to 100 nM | COc1cc(-c2cn(C)c(=O)c3cnccc23)cc(OC)c1CN1CCC2(CC1)CC(NC(=O)CCOCCOc1ccc3c(c1)C(=O)N(C1CCC(=O)NC1=O)C3=O)C2 (stereo not drawn) [Compound D116]
13 | < 10 nM | < 10 nM | – | COc1cc(-c2cn(C)c(=O)c3cnccc23)cc(OC)c1CN1CCC(C2CCN(C(=O)CCOCCOc3ccc4c(c3)C(=O)N(C3CCC(=O)NC3=O)C4=O)C2)CC1 (stereo not drawn) [Compound D129]
14 | < 10 nM | – | 10 to 100 nM | COc1cc(-c2cn(C)c(=O)c3cnccc23)cc(OC)c1CN(C)CC1CC2(CCN(C(=O)CCOCCOc3cccc4c3C(=O)N(C3CCC(=O)NC3=O)C4=O)CC2)O1 (stereo not drawn) [Compound D159]
15 | < 10 nM | – | < 10 nM | COc1cc(-c2cn(C)c(=O)c3cnccc23)cc(OC)c1CN1CC(C)(C(=O)NCCCCCCCCNc2cccc3c2C(=O)N(C2CCC(=O)NC2=O)C3=O)C1 (stereo not drawn) [Compound D13, 1-(2,6-dimethoxy-4-(2-methyl-1-oxo-1,2-dihydro-2,7-naphthyridin-4-yl)benzyl)-N-(8-((2-(2,6-dioxopiperidin-3-yl)-1,3-dioxoisoindolin-4-yl)amino)octyl)-3-methylazetidine-3-carboxamide]
16 | < 10 nM | – | 10 to 100 nM | COc1cc(-c2cn(C)c(=O)c3cnccc23)cc(OC)c1CN(C)CC1CC2(C1)CN(C(=O)CCOCCOc1cccc3c1C(=O)N(C1CCC(=O)NC1=O)C3=O)C2 (stereo not drawn) [Compound D164]
17 | < 10 nM | – | 10 to 100 nM | COc1cc(-c2cn(C)c(=O)c3cnccc23)cc(OC)c1CN1CC(C(=O)NCCCCCCCCNC(=O)COc2cccc3c2C(=O)N(C2CCC(=O)NC2=O)C3=O)C1 (stereo not drawn) [Compound D4, N-[8-[(1-[[2,6-dimethoxy-4-(2-methyl-1-oxo-1,2-dihydro-2,7-naphthyridin-4-yl)phenyl]methyl]azetidin-3-yl)formamido]octyl]-2-[[2-(2,6-dioxopiperidin-3-yl)-1,3-dioxo-2,3-dihydro-1H-isoindol-4-yl]oxy]acetamide formic acid]
18 | < 10 nM | < 10 nM | – | COc1cc(-c2cn(C)c(=O)c3cnccc23)cc(OC)c1CN1CC(C(=O)N2CCC(C3CCN(C(=O)COc4cccc5c4C(=O)N(C4CCC(=O)NC4=O)C5=O)CC3)CC2)C1 (stereo not drawn) [Compound D6, 4-[2-[1-(1-[[2,6-dimethoxy-4-(2-methyl-1-oxo-1,2-dihydro-2,7-naphthyridin-4-yl)phenyl]methyl]azetidine-3-carbonyl)-[4,4-bipiperidin]-1-yl]-2-oxoethoxy]-2-(2,6-dioxopiperidin-3-yl)-2,3-dihydro-1H-isoindole-1,3-dione formic acid]
19 | < 10 nM | < 10 nM | – | COc1cc(-c2cn(C)c(=O)c3cnccc23)cc(OC)c1CN1CC2(CCN(C(=O)CCOCCOc3ccc4c(c3)C(=O)N(C3CCC(=O)NC3=O)C4=O)C2)C1 (stereo not drawn) [Compound D122]

Row | Compound | IC50 (BRD9 bromodomain) | IC50 [1] | DC50 [1]
20 | COc1cc(-c2cn(C)c(=O)c3cnccc23)cc(OC)c1CNCCCN1CC(Oc2ccc3c(c2)C(=O)N(C2CCC(=O)NC2=O)C3=O)C1 (stereo not drawn) [Compound D31, 5-((1-(3-((2,6-dimethoxy-4-(2-methyl-1-oxo-1,2-dihydro-2,7-naphthyridin-4-yl)benzyl)amino)propyl)azetidin-3-yl)oxy)-2-(2,6-dioxopiperidin-3-yl)isoindoline-1,3-dione formic acid] | < 10 nM | – | 10 to 100 nM
21 | COc1cc(-c2cn(C)c(=O)c3cnccc23)cc(OC)c1CN1CCN(C(=O)CCCOc2cccc3c2C(=O)N(C2CCC(=O)NC2=O)C3=O)CC1 (stereo not drawn) [Compound D33, 4-(4-(4-(2,6-dimethoxy-4-(2-methyl-1-oxo-1,2-dihydro-2,7-naphthyridin-4-yl)benzyl)piperazin-1-yl)-4-oxobutoxy)-2-(2,6-dioxopiperidin-3-yl)isoindoline-1,3-dione] | < 10 nM | < 10 nM | –
